Data as given in patent US20250388605A1, “HETEROBIFUNCTIONAL COMPOUNDS AND METHODS OF TREATING DISEASE” (Halda Therapeutics OpCo, Inc., priority 2022, published 2025).
pKi: −log10 of the molar value.

These compounds were tested against T1, progesterone receptor (Homo sapiens, UniProt P06401) (assay: PR Human Progesterone NHR Binding (Agonist Radioligand) Assay, [3H]progesterone, T47D cytosolic fractions). Settings: 0.5 nM [3H]progesterone, 1 hour at 4° C.
T1 sequence (P06401 679-933 limits assumed): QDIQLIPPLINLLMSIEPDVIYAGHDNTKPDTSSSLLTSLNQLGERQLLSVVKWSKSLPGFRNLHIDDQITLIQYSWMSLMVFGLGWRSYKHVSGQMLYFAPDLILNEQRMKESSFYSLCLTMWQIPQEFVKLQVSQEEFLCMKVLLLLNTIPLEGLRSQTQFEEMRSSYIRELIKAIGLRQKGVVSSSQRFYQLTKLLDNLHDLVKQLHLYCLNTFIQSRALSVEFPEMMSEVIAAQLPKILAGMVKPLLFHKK
Method: Exemplary compounds were tested for ability to bind to the progesterone receptor.
Compounds were tested using the PR Human Progesterone NHR Binding (Agonist Radioligand) Assay, Cerep at Eurofins Discovery using a modified version of the protocol from Sarup et al. (Cancer Res 1988; 48:5071-5078). Briefly, cytosolic fractions of T47D cells were incubated with 0.5 nM [^3H]progesterone for 1 hour at 4° C. in the absence or presence of the test compound. Nonspecific binding was determined in the presence of […] promegestone. Reactions were subjected to scintillation counting. Results are expressed as a percent inhibition of the control radioligand specific binding.

pKi | SMILES
> 7.30 | Cn1cc(-c2cc(C(C)(C)O)ccc2Oc2ccc(N3CC(CC4CCN(c5ncc(C(=O)N[C@H]6C(C)(C)[C@H](Oc7ccc(C#N)c(Cl)c7)C6(C)C)cn5)CC4)C3)cc2)c2cc[nH]c2c1=O [Compound I-232]
> 7.30 | CCS(=O)(=O)c1ccc(Oc2cccc(OCCOC3CCN(c4ccc(C(=O)N[C@H]5C(C)(C)[C@H](Oc6ccc(C#N)c(Cl)c6)C5(C)C)cn4)CC3)c2F)c(-c2cn(C)c(=O)c3[nH]ccc23)c1 [Compound I-185]
> 7.30 | CCS(=O)(=O)Nc1ccc(Oc2cccc(CCOC3CCN(c4ncc(C(=O)N[C@H]5C(C)(C)[C@H](Oc6ccc(C#N)c(Cl)c6)C5(C)C)cn4)CC3)c2)c(-c2cn(C)c(=O)c3[nH]ccc23)c1 [Compound I-19]
